Assays:
437 = assay: UV ketonization assay, decay of enol at […] nm; assay type: biochemical, Calothrix sp. PCC 6303; details: read-out: 437 / Km; 10 mM Na2HPO4, pH 8.3, 22 °C; 5-75 μM substrate
Nterm1 = Nterm1 (UniProt position 2, ----MPLLKFD); assay: NMR; details: not stated (presumably free enzyme); cited from earlier work

Km 437 [µM]	Compound	pKa (Nterm1)
34 ± 12	O=C(O)C=CC=C(O)C(=O)O [2-HM, 2-Hydroxymuconate]	–
–	Malonate semialdehyde decarboxylase (Pp MSAD) (Pseudomonas pavonaceae 170)	~9.2
